{"source": "patent US8765433B2", "about": "“Alcohol dehydrogenases (ADH) useful for fermentive production of lower alkyl alcohols” (priority 2009, dated 2014)", "tested_on": "Achromobacter xylosoxidans SadB (SadB), SEQ ID NO: 26", "assay": "isobutyraldehyde reduction kinetics (A340, initial rates)", "type": "biochemical", "settings": "read-out: KM (NADH); cofactor", "source_text": "This example describes preparation of ADH-gene constructs for over-expression/purification and measurement of enzyme activities using a time-course assay. Horse-liver ADH (HLADH; A-6128) was purchased from Sigma. Achromobacter xylosoxidans SadB (SadB), Saccharomyces cerevisiae ADH6 (ScADH6) and ADH7 (ScADH7), Entamoeba histolytica ADH1 (EhADH1), Bos Taurus Aldehyde Reductase (BtARD), Beijerinckia indica subsp. Indica ATCC 9039 (BiADH), Clostridium beijerinckii ADH (CbADH), Rana perezi ADH8 (RpADH8), Rattus norvegicus ADH1 (RnADH1), Thermus sp. ATN1 ADH (TADH), Phenylobacterium zucineum HLK1 ADH (PzADH), Methylocella silvestris BL2 ADH (MsADH), Acinetobacter baumannii AYE ADH (AbADH), Geobacillus sp. WCH70 ADH (GbADH), Vanderwaltozyma polyspora DSM 70294 ADH (VpADH), Mucor circinelloides ADH (McADH), and Rhodococcus erythropolis PR4ADH (ReADH) were the candidates for which subclones were prepared for protein expression and purification.\nAs a routine practice, the crude extracts and purified proteins were assayed for butanol oxidation activity, in order to ensure that the recombinant proteins were active throughout the purification process. […] Alcohol oxidation activities were carried out in 50 mM sodium phosphate buffer at pH 8.8 and aldehyde reduction reactions were assayed in 190 mM potassium phosphate buffer at pH 7.0. Depending on the nature of reaction being carried out, the enzyme and cofactor stocks were diluted in the reaction buffers at the respective pHs. Either buffer or cell extract prepared from the proprietary E. coli strain (with no ADH plasmid) was used as the negative control for assays with purified protein and cell-free extracts, respectively.\nKinetic constants of the ADH enzymes were calculated and compared to identify those candidate ADH enzymes with the most desirable properties for the conversion of isobutyraldehyde to isobutanol in the last step of the engineered pathway for isobutanol production. The assays for determining the kinetic constants were carried out using initial rates from the assays described above. […] The concentration of a given enzyme was such that it was conducive for the measurement of initial velocities over a 1-min time course. For each enzyme, Michaelis-Menten plots were generated with a broad range of substrate concentrations. Rough estimates of KM were obtained, based on which the assays were redesigned so as to use substrate concentrations in the range 0.5 to 10 times the KM value, to be able to obtain the appropriate kinetic constants. […] Reactions with isobutanol substrate were performed at 30° C. in 50 mM Sodium phosphate buffer, pH 8.8, containing 7.5 mM NAD. The Enzyme kinetics module (Version 1.3) of SigmaPlot 11 (Systat Software, Inc.) was used to fit data to Michaelis-Menten equations and calculate the kinetic constants. The kcat/KM is derived from the individual numbers of kcat and KM and not an experimentally determined value.\nFor those enzymes marked with an asterisk in Table 7, at least 3 assays were performed with separate preparations of the enzyme. All other numbers are values from either one assay or are averages from 2 assays performed with the same enzyme sample."}
{"smiles": "NC(=O)C1=CN([C@@H]2O[C@H](COP(=O)(O)OP(=O)(O)OC[C@H]3O[C@@H](n4cnc5c(N)ncnc54)[C@H](O)[C@@H]3O)[C@@H](O)[C@H]2O)C=CC1", "note": "[NADH, reduced nicotinamide adenine dinucleotide]", "values": [{"measurement": "Km", "value": 20, "unit": "µM"}]}
